Measurements reported in patent US20190046649A1, “DELIVERY DEVICE AND USE THEREOF FOR LOADING CELL PLASMA MEMBRANES” (UNIVERSITY OF MARYLAND, BALTIMORE COUNTY, priority 2017, published 2019).
No end group written: not given here.

How the values were obtained:
[1] = system: bystander B cells (TLR2); assay: TLR2 ligand-depoted T cells co-cultured with bystander B cells, activation markers by flow cytometry; assay type: cell-based, mouse
Protocol: (§1) A) Splenic immune cells were depoted with 10 μg/ml of Pam2CSK4 for 1 h. Depoted cells were resting for up to 1 h versus nondepoted cells with addition of 100 ng/ml of soluble Pam2CSK4. Phosphorylated p38 was measured compared to negative controls by western blotting. n=2 independent experiments. Data depict m±s.d. B) Isolated T-cells were depoted with TLR2 ligand and MFI of activation markers, MHCII and CD69, on bystander B-cells were measured after 2-day culture by flow cytometry and normalized to unstimulated B-cells (fold MFI). n=5-6 independent experiments, one-way ANOVA with Kruskal-Wallis test. Data depict m±s.d. C) Splenocytes were cultured in 2 μg/ml of Concanavalin A and 10 ng/ml of IL-7 for 2 days, and isolated T-cells were then TLR2 ligand-depoted for 1 hour. Depoted T-cells were then resting for 0 h, 3 h, 24 h, or 48 h, before T-cells were chemically fixed and co-cultured for 2 days with CD45.1^+ bystander B-cells. Bystander B-cells were used as a reporter to determine TLR2 ligand surface persistence on depoted T-cells by their fold MFI of MHCII and CD69. n=5 independent experiments. Data depict m±s.d.
A) Pam2CSK4-biotin at indicated concentrations was depoted into CD3+CD8+ or CD3+CD8− T-cells and stained with streptavidin (SAV) PE as determined by flow cytometry. B) Paracrine signaling of resting vs Concanavalin A/IL-7-activated TLR2 ligand-depoted CD8+ T-cells. Activated CD8+ T-cells were isolated from splenocytes cultured in 2 μg/ml of Concanavalin A and 10 ng/ml of IL-7 for 2 days. TLR2 ligand was depoted and processed by CD8+ T-cells for 0 h, 3 h, 6 h, 24 h, or 48 h, before T-cells were chemically fixed and cultured for 2 days with bystander B-cells to determine fold MFI intensity of MHC II, CD69, and CD86 (C).
CD45.1+ B cells were depoted with lipo-CpG, CpG, or nothing. These were cultured alone or 1:1 mixed with bystander (no depot) CD45.1− B cells. B cell activation was shown as fold intensity CD86 measured by flow cytometry after 3 d. B) CD8+ T cells were depoted with Pam2CSK4 or nothing, and then co-cultured 1:1 with bystander CD45.1+ B cells for 3 d. B cell activation was measured by CD86 and compared to a continuous exposure Pam2CSK4 control. […]
After determining that depoting was a robust process, the function of depoted Pam2CSK4 to activate neighboring immune cells was tested. Depoted T cells were co-cultured with responders (B cells) and the expression of activation markers was determined after 2 days of co-culture at a 1:1 T cell:B cell ratio.
In FIG. 11, Pan T cells were isolated from mice and either left alone (blue, red) or depoted with Pam2CSK4 for 1 h (green). […] Expression levels of activation markers were analyzed by flow after 2 days and fluorescence intensity normalized to B cells activated with polyclonal stimulus. […]

[2] = system: CD8+ T cells; assay: Proliferation of depoted T cells after 3 d stimulation with 1:1 anti-CD3/28 beads (CFSE dilution); assay type: cell-based, murine; conditions: 1:1 beads
Protocol: T-Cells were cultured with 5 μM of soluble lipo-CpG or depoted with lipo-CpG, and CFSE dilution was measured by flow cytometry. B) Quantification of division index of CD4^+ T-cells as measured by CFSE dilution from flow cytometry. n=3 independent experiments, one-way ANOVA with Krustal-Wallis test. *p<0.05 between the unstim condition.
CD45.1+ B cells were depoted with lipo-CpG, CpG, or nothing. These were cultured alone or 1:1 mixed with bystander (no depot) CD45.1− B cells. B cell activation was shown as fold intensity CD86 measured by flow cytometry after 3 d. B) CD8+ T cells were depoted with Pam2CSK4 or nothing, and then co-cultured 1:1 with bystander CD45.1+ B cells for 3 d. B cell activation was measured by CD86 and compared to a continuous exposure Pam2CSK4 control. C) Representative histograms showing CFSE dilution (proliferation) of CD8+ T cells after 3 d stimulation with 1:1 anti-CD3/28 beads. Where indicated, cells were depoted or cultured with continuous soluble lipo-CpG (left) or Pam2CSK4 (right). Bars=median, whiskers=range; n=3.
B cells depoted with lipo-CpG had sustained activation up to 3 d (FIG. 10 A). […] The ability of a surface sensed lipo-Av to activate neighboring cells was also tested, using Pam2CSK4 which engages surface TLR2.

[3] = system: T-cells; assay: Insertion (depoting) of TLR2 ligands into cell membranes and intracellular localisation; assay type: cell-based, murine
Protocol: A) Structure of synthesized lipo-ligand, which are diacyl 18-carbon tails conjugated to: unmethylated CpG oligonucleotide ([…]) (SEQ ID NO: 1), or a poly(ethylene) glycol (PEG) linker plus a melanoma antigen, GP10025-33 (KVPRNQDWL) (SEQ ID NO: 2). B) Schematic of lipo-ligand depoting into cell membrane surface. C-D, CD4+ and CD8+ T-cells are identified by flow cytometry and median fluorescence intensity (MFI) of labeled ligand is determined on each cell subset as a function of time and ligand concentration. C) Fluoroscein (FAM)-labeled lipo-CpG, a TLR9 ligand, depoted into murine splenic immune cells. D) Pam2CSK4, a TLR2 ligand, depoted into murine splenic immune cells. E) MFI of lipo-GP100 is determined by flow cytometry as a function of cell density and depot volume. F-G, Isolated T-cells are depoted by varying depot time or ligand concentration, and quantified as average number of ligand per T-cell by enzyme-linked immunosorbant assay (ELISA) F) Lipo-CpG depoted into isolated T-cells. G) Pam2CSK4 and Pam3CSK4, another TLR2 ligand, respectively depoted into isolated T-cells. H) Average number of each respective ligand per splenic immune cell after 1 hour depot. n=3-5 independent experiments. Data depict m±s.d.
as §1, with “Depoted T-cells were then resting for 0 h, 3 h, 24 h, or 48 h, before T-cells were chemically fixed and co-cultured for 2 days with CD45.1^+ bystander B-cells. Bystander B-cells were used as a reporter to determine TLR2 ligand surface persistence on depoted T-cells by their fold MFI of MHCII and CD69. n=5 independent experiments. Data depict m±s.d.” left out

[4] = system: CD8+ T cells with B16F10 tumor cells; assay: Proliferation of depoted CD8+ T cells with αCD3/28 beads in the presence of immunosuppressive tumor cells; assay type: cell-based, murine; conditions: 3 days coculture with αCD3/28 beads
Protocol: A) Flow cytometry histograms showing CFSE dilution of CD8^+ T-cells after 3-day stimulation with ratios of 1:1 αCD3/CD28 beads and 1:5 B16F10 tumor cells (blue text). T-Cells were cultured with 10 μg/ml of soluble Pam2CSK4 or Pam3CSK4 either alone or in combination with 5 μM of soluble lipo-CpG (solid fill), or depoted with the same respective combinations (tinted fill). B) Quantification of percent of CD8^+ T-cells that divided >5 times compared to undivided CD8^+ T-cells as measured by CF SE dilution from flow cytometry. C) IL-2 production from CD8^+ T-cell supernatents after 3 days of proliferation. n=1 independent experiment.
The proliferative capacity of depoted CD8+ T cells was evaluated after 3 days of coculture with αCD3/28 beads in the presence or absence of immunosuppressive tumor cells.

[5] = system: resting memory CD4+ T cells; conditions: cited from earlier work
[6] = system: cognate CD8+ T-cells; assay: Antigen presentation by lipo-GP100-depoted B-cells to cognate CD8+ T-cells (T-cell proliferation, CFSE dilution); assay type: cell-based, murine
Protocol: A) Activated B-cells were isolated from splenocytes and cultured with 1 μg/ml TLR7 ligand R848 and αIgM antibody for 2 days. Resting versus activated B-cells were depoted with lipo-GP100-FAM for 1 hour. Lipo-GP100-FAM and forward scatter fold increase was measured by flow cytometry. B) LipoGP100-depoted resting B-cells presented to and proliferated cognate CD8^+ T-cells at 33 μM of 1 h depoted lipo-GP100 after 3-day culture as measured by CFSE dilution with flow cytometry. Indicated values are percent CD8^+ T-cells that divided at least once. C) BMDCs were cultured with 20 ng/ml of GM-CSF for 7 days before harvested and either depoted with 33 μM of lipo-GP100 or pulsed with 33 μM of short GP100 (KVPRNQDWL) (SEQ ID NO: 2) peptide, along with resting B-cells. These modified APCs were co-cultured with pmel-1 GP100-specific CD8^+ T-cells for 3 days to determine pmel-1 T-cell proliferation by flow cytometry. n=1 independent experiment.
Antigen processing in APC B-cells by A) endocytosis, B) direct binding affinity on APC surface, or C) depoting. 33 uM of indicated GP100 antigen is conferred to APC B-cells for 1 h, then processed by B-cells in aforementioned antigen processing mechanisms for 0 h, 3 h, or 16 h, before B-cells are chemically fixed and cultured with cognate CD8^+ T-cells for 3 days to determine T-cell proliferation. n=1 independent experiment.
An diacyl (C18) lipid-conjugated ligands (lipo-ligands) was engineered that can be depoted into cell membranes in a time- and concentration-dependent fashion for precise and robust delivery up to 241.5±9.6 (mean±SD) fold increase compared to nondepoted cells. […] B) Representative histograms of fluorescein-labeled (FAM-labeled) lipo-GP100 fluorescence on B-cell surface as functions of depot time and lipo-GP100 concentration measured by flow cytometry. Median fluorescence intensity (MFI) of lipo-GP100 FAM fold increase on B-cells from non-depoted B-cells by flow cytometry. […]

Q: With Pam2CSK4 as the substance, how does the “B cell activation by depoted CD8+ T cells relative to continuous exposure control” value ([1]; 1:1 co-culture 3 d, CD86) read?
A: nearly matching continuously exposed control

Q: And the “duration of trans signaling and activation of B cells by depoted CD8+ T cells” value ([1]; 1:1 co-culture, CD86)?
A: 3 days

Q: What about the “activation of neighboring responder B cells by depoted T cells relative to soluble ligand” value ([1]; 2 days co-culture, 1:1 T cell:B cell ratio, depoted 1 h) of the same substance?
A: nearly equivalent to high doses of Pam2CSK4 in solution

Q: And the “persistence of bystander-activating activity of depoted T cells” value ([1]; data not shown)?
A: persists for multiple days

Q: And the “effect of depoting on CD8+ T cell proliferation in response to αCD3/28 beads” value [2]?
A: did not

Q: And the “insertion into cell membranes” value [3]?
A: can be rapidly inserted into cell membranes

Q: And the “intracellular localisation by microscopy” value ([3]; 24 h post-depoting)?
A: colocalizing with early endosome antigen 1 (EEA1)

Q: What about the “proliferative capacity of depoted T cells in the presence of tumor cells” value [4] of the same substance?
A: recovered proliferative capacity in the presence of tumor cells

Q: For Pam3CSK4, which “HIV latency reactivation ("shock") activity” value [5] is on record?
A: effective “shock” agent

Q: And the “insertion into cell membranes” value [3]?
A: can be rapidly inserted into cell membranes

Q: What about the “proliferative capacity of depoted T cells in the presence of tumor cells” value [4] of the same substance?
A: recovered proliferative capacity in the presence of tumor cells

Q: What does the source list for “lipo-GP100: diacyl 18-carbon tails conjugated to a PEG linker plus melanoma antigen GP10025-33 (KVPRNQDWL) (SEQ ID NO: 2) (also: diacyl C18 lipid tails via PEG linker, site not given here)”?
A: manner of antigen presentation by APC B-cells to cognate CD8+ T-cells ([6]; 33 uM antigen 1 h, processed 0 h, 3 h or 16 h, fixed, 3-day culture): delayed and prolonged manner; B-cells as APCs versus BMDCs presenting antigen, MHCI-restricted ([6]; 33 μM depoted, 3-day co-culture with pmel-1 CD8+ T-cells): comparable to bone marrow derived cells (BMDCs); duration of antigen presentation from B-cells to cognate CD8+ T-cells ([6]; GP100 25-33 antigen delivered by depoting): > 16 h
